Test results as given in patent US20260049068A1, “Substituted Tetrazolyl Compounds Useful as T Cell Activators” (BRISTOL-MYERS SQUIBB COMPANY, priority 2022, published 2026).

Key:
Full length human DGKα = Full length human DGKα (Homo sapiens (Human), UniProt P23743);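 note: ADP-Glo luminescence assay of ADP formed by 5 nM full-length DGKα on extruded PS/DAG/PC liposomes with 150 µM ATP, 1 h reaction, 11-point inhibitor titration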
Experimental: The DGKα (Full Length and Near Full Length) ADP Glo assays were performed using an extruded liposome prep at either 5% DAG or 10% DAG. The Enzymatic reactions were carried out in 50 mM MOPS pH 7.5, 100 mM NaCl, 10 mM MgCl2, 1 μM CaCl2, and 1 mM DTT (assay buffer). The lipid substrate concentrations were 1.9 mM PS, either 0.25 mM DAG (5% liposome prep) or 0.5 mM DAG (10% liposome prep), and 2.7 mM PC for the extruded liposome reactions. The reactions were carried out at 150 μM ATP. The enzyme concentrations for the DGKα(Near Full Length) and DGKα(FL) were 5 nM.
The compound inhibition studies were carried out as follows: 25 nL droplets of each test compound (11 point, 3-fold dilution series for each compound) solubilized in DMSO were transferred to wells of a white 1536 well plate (Corning 3725). A 5 mL enzyme/substrate (substrate being the 5× or 10× liposome preparation) solution at 2× final reaction concentrations was prepared by combining 5 ml of the extruded liposome preparation with 10 nM (2× final) DGKα(Near Full Length) or DGKα(Full Length) prepared as described below) and incubated at room temperature for 10 minutes. Next, 1 μL of the 2× enzyme/substrate solution was added to wells containing the test compound and reactions were initiated with the addition of 1 μL 300 uM ATP. Substrate only was added to DMSO only wells for background measurements. The reactions were allowed to proceed for 1 hr, after which 2 μL Glo Reagent (Promega V9101) was added and incubated for 40 minutes. Next, 4 μL Kinase Detection Reagent was added and incubated for 30 minutes. Luminescence was recorded using an EnVision microplate reader. […] The compounds were evaluated at 11 concentrations to determine IC50.

[1] = target: Near full length human DGKα(S9-S727) (Homo sapiens (Human), UniProt P23743); test: DGKα (Near Full Length) ADP Glo assay; format: biochemical; details: extruded liposomes 5% or 10% DAG, 150 μM ATP, 5 nM enzyme; read-out: Near Full Length DGKalpha ADPGLO IC50
Chain of Near full length human DGKα(S9-S727) (P23743 9-727): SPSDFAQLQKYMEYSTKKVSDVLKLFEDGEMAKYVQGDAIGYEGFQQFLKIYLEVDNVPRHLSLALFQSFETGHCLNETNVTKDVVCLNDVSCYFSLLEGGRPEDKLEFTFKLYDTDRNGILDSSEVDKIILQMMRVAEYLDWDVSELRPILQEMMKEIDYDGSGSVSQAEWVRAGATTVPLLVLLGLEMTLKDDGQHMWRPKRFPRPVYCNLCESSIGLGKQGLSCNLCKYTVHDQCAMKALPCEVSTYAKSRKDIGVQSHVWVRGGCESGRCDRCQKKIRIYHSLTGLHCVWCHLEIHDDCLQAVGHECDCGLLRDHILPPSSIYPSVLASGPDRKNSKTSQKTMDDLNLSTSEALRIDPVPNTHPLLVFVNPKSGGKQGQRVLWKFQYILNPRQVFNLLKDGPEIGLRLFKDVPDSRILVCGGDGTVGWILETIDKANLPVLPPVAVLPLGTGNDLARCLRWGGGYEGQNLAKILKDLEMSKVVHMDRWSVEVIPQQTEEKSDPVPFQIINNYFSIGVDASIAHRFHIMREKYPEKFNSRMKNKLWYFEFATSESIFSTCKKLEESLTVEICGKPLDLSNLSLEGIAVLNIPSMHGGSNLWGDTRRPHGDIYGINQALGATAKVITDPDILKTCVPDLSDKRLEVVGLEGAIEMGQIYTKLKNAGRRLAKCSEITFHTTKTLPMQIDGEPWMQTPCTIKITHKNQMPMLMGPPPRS
Experimental: The reactions were carried out at 150 μM ATP.
Luminescence was recorded using an EnVision microplate reader.

DGKα-YFP in Jurkat cells = DGKα-YFP in Jurkat cells (Homo sapiens (Human), UniProt P23743); test: In vitro DGKα translocation assay; format: cell-based; details: 1 hour at 37° C., top concentration 10 μM, read-out: DGKalpha Translocation EC50
Chain of DGKα-YFP in Jurkat cells (P23743 whole entry, canonical isoform): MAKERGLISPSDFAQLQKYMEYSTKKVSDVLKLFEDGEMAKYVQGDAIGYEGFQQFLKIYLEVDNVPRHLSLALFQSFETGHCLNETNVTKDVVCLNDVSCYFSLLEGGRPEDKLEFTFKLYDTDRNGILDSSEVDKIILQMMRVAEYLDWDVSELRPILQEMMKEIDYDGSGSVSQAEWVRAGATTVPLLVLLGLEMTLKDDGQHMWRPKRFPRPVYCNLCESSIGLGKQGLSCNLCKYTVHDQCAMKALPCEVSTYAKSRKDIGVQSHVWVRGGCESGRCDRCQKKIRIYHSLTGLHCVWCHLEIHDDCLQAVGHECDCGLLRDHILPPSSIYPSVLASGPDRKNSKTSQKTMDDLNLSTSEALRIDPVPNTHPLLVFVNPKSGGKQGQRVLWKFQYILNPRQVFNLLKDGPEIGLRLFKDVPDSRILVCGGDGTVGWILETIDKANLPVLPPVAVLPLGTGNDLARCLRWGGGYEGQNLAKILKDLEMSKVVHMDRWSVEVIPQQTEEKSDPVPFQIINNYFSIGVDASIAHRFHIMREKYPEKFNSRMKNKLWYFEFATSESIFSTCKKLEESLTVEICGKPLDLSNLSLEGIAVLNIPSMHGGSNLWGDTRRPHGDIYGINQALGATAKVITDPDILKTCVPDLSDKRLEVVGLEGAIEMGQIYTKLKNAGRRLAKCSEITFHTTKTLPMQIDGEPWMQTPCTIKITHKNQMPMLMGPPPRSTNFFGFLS
Source text: Jurkat cells were transduced with lentiviral constructs overexpressing DGKα-YFP (N-terminal tagged), selected by puromycin, and were FACs sorted to establish stable lines expressing each isoform (Jurkat-DGKα-YFP=BXA-212700-01-001, Jurkat-DGKz-YFP=BXA-212701-01-001). Cell lines were maintained in growth media (RPMI supplemented with 10% FBS and pen/strep). All translocation assays were run in assay media (RPMI supplemented with 10% FBS and no antibiotics).
For translocation assays cells were plated onto Perkin Elmer CellCarrier-384 Ultra Microplates (Perkin Elmer cat #6057500) at a density of 30,000 cells/well, in a volume of 40 μL of assay media. Compounds were then transferred to the cells by an Echo Acoustic Liquid Handler (Echo 655). […] Treated cells were then incubated at 37° C. for 1 hour. Cells were then fixed with 4% formaldehyde (Thermo cat #28906) for 15 minutes, centrifuged briefly to increase cell retention (250 rpm for 5 minutes), and then washed 3× with 50 μL PBS. Cells were then stained with Hoechst, and washed 2× with 50 ul PBS. Next, 50 μL PBS was added to each well, plates were sealed, and plates were imaged on an Opera Phenix High Content screening system. Imaging was done with the 40× water objective. The YFP channel was set at 100% power for […], 10 regions/well were imaged and analyzed. Data analysis was done with Columbus Image Analysis software (Perk-in Elmer).

Chain of Full length human DGKα (P23743 other isoform, or with tags, fused parts or gaps): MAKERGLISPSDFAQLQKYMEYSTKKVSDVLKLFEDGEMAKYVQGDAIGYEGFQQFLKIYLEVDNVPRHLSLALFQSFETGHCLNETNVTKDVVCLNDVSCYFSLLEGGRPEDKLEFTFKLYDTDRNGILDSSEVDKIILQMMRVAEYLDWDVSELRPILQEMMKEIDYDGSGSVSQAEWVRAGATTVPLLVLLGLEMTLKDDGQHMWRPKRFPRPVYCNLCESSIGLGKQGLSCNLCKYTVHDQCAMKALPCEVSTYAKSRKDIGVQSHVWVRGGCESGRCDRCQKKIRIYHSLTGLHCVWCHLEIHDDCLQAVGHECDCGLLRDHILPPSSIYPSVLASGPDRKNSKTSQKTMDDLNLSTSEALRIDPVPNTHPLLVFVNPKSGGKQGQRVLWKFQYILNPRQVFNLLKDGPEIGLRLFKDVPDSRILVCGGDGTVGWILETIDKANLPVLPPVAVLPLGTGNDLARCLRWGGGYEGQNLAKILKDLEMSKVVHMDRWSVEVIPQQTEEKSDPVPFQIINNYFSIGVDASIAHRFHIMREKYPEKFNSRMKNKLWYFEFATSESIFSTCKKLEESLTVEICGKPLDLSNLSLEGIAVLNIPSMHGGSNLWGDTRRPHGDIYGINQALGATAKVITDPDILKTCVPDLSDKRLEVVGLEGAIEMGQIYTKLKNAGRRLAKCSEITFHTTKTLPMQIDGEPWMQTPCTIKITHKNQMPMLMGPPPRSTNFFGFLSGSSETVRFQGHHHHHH

Row | SMILES | IC50 (Full length human DGKα) [nM] | IC50 [1] [nM] | EC50 (DGKα-YFP in Jurkat cells) [nM]
1 | CCN(Cc1nnnn1-c1ccc(Cl)c(C#N)c1)C1CCCCC1 [Example 13, 2-chloro-5-(5-((cyclohexyl(ethyl)amino)methyl)-1H-tetrazol-1-yl)benzonitrile] | 90 | 80 | 120
2 | CN(Cc1nnnn1-c1ccc(Cl)c(C#N)n1)C1CCCCC1 [Example 14, 3-chloro-6-(5-((cyclohexyl(methyl)amino)methyl)-1H-tetrazol-1-yl)picolinonitrile] | 2000 | 1100 | 1800
3 | N#Cc1nc(-n2nnnc2CN(CC2CC2)C2CCCCC2)ccc1Cl [Example 15, 3-chloro-6-(5-((cyclohexyl (cyclopropylmethyl)amino)methyl)-1H-tetrazol-1-yl) picolinonitrile] | 3100 | 4300 | 2100
4 | CCN(Cc1nnnn1-c1ccc(Cl)c(C#N)n1)C1CCCCC1 [Example 16, 3-chloro-6-(5-((cyclohexyl(ethyl)amino)methyl)-1H-tetrazol-1-yl)picolinonitrile] | 2700 | 2600 | > 10000
5 | CN(Cc1nnnn1-c1cccc(C(F)(F)F)c1)C1CCCCC1 [Example 18, N-methyl-N-((1-(3-(trifluoromethyl)phenyl)-1H-tetrazol-5-yl)methyl) cyclohexanamine] | 9700 | 11000 | > 5000
6 | CN(Cc1nnnn1-c1cccc(F)c1)C1CCCCC1 [Example 19, N-((1-(3-fluorophenyl)-1H-tetrazol-5-yl)methyl)-N-methylcyclohexanamine] | 5200 | 5800 | > 5000
7 | CN(Cc1nnnn1-c1ccc(F)c(C#N)c1)C1CCCCC1 [Example 21, 5-(5-((cyclohexyl (methyl)amino)methyl)-1H-tetrazol-1-yl)-2-fluorobenzonitrile] | 3700 | 3100 | 1200
8 | CN(Cc1nnnn1-c1ccc(C(F)(F)F)nc1)C1CCCCC1 [Example 23, N-methyl-N-((1-(6-(trifluormethyl)pyridin-3-yl)-1H-tetrazol-5-yl)methyl) cyclohexanamine] | 6500 | 3600 | > 5000
9 | COc1ccc(-n2nnnc2CN(C)C2CCCCC2)cc1C#N [Example 24, 5-(5-((cyclohexyl(methyl)amino)methyl)-1H-tetrazol-1-yl)-2-methoxybenzonitrile] | 900 | 860 | 1700
10 | Cc1ccc(-n2nnnc2CN(C)C2CCCCC2)cc1C#N [Example 25, 5-(5-((cyclohexyl(methyl)amino)methyl)-1H-tetrazol-1-yl)-2-methylbenzonitrile] | 140 | 410 | 350
11 | CN(Cc1nnnn1-c1ccc(Cl)cc1)C1CCCCC1 [Example 29, N-((1-(4-chlorophenyl)-1H-tetrazol-5-yl)methyl)-N-methylcyclohexanamine] | 3500 | 1700 | 570
